For data set [1], the system named is Rats. The conditions noted are these: rat, in vivo; cited from earlier work.
The subject of data set [2] is guinea pigs. The note with it: guinea pig, in vivo.
Protocol: (§1) Sera from all bleedings were analysed by passive cutaneous anaphylaxis reaction. Arthus reaction in rabbits and active anaphylaxis reaction in guinea pigs were performed too.
Data set [3] concerns Mice. The conditions noted are these: mouse, in vivo.
Protocol: as §1
The subject of data set [4] is humans. The note with it: in vivo, iv.
Data set [5] deals with patients. The note with it: human, in vivo; cited from earlier work.
Data set [6] deals with Mice. The conditions noted are these: mouse, in vivo. The source holds these as a separate data set.
Data set [7] concerns antibodies in human sera.
The subject of data set [8] is antibodies in human sera. The conditions noted are these: cited from earlier work.
Data set [9] has as its system Rabbits. The note with it: rabbit, in vivo.
Protocol: as §1
The test system of data set [10] is Mice. The conditions noted are these: mouse, in vivo; cited from earlier work.
The test system of data set [11] is Rats. The conditions noted are these: rat, in vivo.

In the case of Dextran, the anaphylactoid reaction entry in [1] is “edema and erythema of paws, ears and snout”; in data set [10] it was “edema and erythema of paws, ears and snout”. The “antibodies detectable / immunogenicity” value in data set [2] and in data set [9] was “not immunogenic” each time. Further, in data set [3], the circulating antibodies entry is “circulating antibodies were detected”. In addition, the antibody production result in data set [4] was “do not lead to antibody production”. Moreover, the “renal lesion or anaphylactic shock” value in [5] is recorded as 6 - 8%. Besides, the anaphylactoid purpura entry is “anaphylactoid purpura appeared in the paws, ears and tail” in data set [6]; “anaphylactoid purpura appeared in the paws, ears and tail” in data set [11]. Moreover, the anaphylactoid inflammation entry in data set [6] (iv) is “acute, serous anaphylactoid inflammation in the ears, snout and tail”; in data set [11] (iv) it was “acute, serous anaphylactoid inflammation in the ears, snout and tail”. Moreover, the “sera positive in passive cutaneous anaphylaxis reaction” value in data set [7] was “Three sera gave positive a reaction”. In data set [8], the “human sera contain reacting antibodies; anaphylactic reaction after infusion” value is “human sera contain Dextran reacting antibodies of varying types”.

The record behind these values is patent US3937821A, “Plasma substitute including artificial starch and method for the preparation thereof” (Kyorin Seiyaku Kabushiki Kaisha, priority 1971, dated 1976).
